This series in a line: Pharmacokinetics of DTX in mice after oral administration. Type of series: in vivo, Kunming mice. The note with it: lung, oral 20 mg/kg DTX or equivalent.

Procedure: Briefly, the samples were precipitated with three volumes of acetonitrile and analyzed using an LC-MS/MS system comprising a Waters ACQUITY ultra-high-performance liquid chromatography (UPLC) system (Waters Corporation, Milford, MA, USA) and an API 5500 mass spectrometer (AB Sciex LLC, Framingham, MA, USA) equipped with an electrospray ionization source. Separation was performed on an ACQUITY BEH C18 column (2.1 × 100 mm, 1.7 μm; Waters) using a gradient elution.
One hundred specific-pathogen-free (SPF) male Kunming mice (body weight: 22–24 g) were purchased from the Beijing Vital River Laboratory Animal Technology Co., Ltd. (Beijing, China). Mice were housed in an air-conditioned room maintained at 22–24 °C with a 12 h light/12 h dark cycle. Prior to the experiment, mice were fasted for 12 h with free access to water.
Mice were randomly divided by body weight into two main groups, each subdivided into 10 subgroups. […] At each time point post-administration (0.083, 0.25, 0.5, 1, 2, 3, 4, 6, 8, and 12 h), one subgroup of mice from each main group was anesthetized with Zoletil® 50. Systemic blood was collected and heparinized to prepare the plasma. Next, the animals were immediately euthanized by cervical dislocation under deep anesthesia prior to liver and lung excision. […]
Quantitative data are expressed as the mean ± SD.

In the case of `CC(=O)O[C@@]12CO[C@@H]1C[C@H](O)[C@@]1(C)C(=O)[C@H](O)C3=C(C)[C@@H](OC(=O)[C@H](O)[C@@H](NC(=O)OC(C)(C)C)c4ccccc4)C[C@@](O)([C@@H](OC(=O)c4ccccc4)[C@H]21)C3(C)C` [DTX, docetaxel], the t1/2 is 2.6 h.

Source of the values: article PMC13304593 (Pharmaceuticals, 2026).
